# Measurements reported in patent US9226916B2, “Pyrrolidine derivatives” (HOFFMANN-LA ROCHE INC., priority 2009, dated 2016).
# Molecular target: T1, recombinant human NK3 receptor (Homo sapiens, UniProt P29371)
# T1 construct: expressed in transfected cells; host or cells: HEK293 cells, transient expression; membranes
# T1 sequence (P29371 1-465): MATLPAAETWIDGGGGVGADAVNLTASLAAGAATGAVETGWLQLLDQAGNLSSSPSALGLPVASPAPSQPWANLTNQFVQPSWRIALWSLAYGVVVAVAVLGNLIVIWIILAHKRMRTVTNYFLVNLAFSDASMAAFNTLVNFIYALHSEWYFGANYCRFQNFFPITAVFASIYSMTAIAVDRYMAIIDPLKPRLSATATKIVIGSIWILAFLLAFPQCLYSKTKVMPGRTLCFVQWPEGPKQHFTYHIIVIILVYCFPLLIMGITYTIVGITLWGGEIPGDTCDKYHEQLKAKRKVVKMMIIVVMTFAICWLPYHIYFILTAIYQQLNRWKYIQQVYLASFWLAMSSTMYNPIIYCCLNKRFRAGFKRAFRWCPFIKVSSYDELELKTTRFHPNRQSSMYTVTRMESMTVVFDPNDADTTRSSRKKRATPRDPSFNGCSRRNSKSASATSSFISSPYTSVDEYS
# Assay: [3H]SR142801 competition binding assay
# Conditions: not given
row,Structure (SMILES),Ki [nM]
1,"COc1ccc(OC(=O)N(C)[C@H]2CN(C(=O)C3CCN(CC4CC4)CC3)C[C@@H]2c2ccc(Cl)c(Cl)c2)cc1 (racemic) [Example 9, rac-[(3R,4S)-1-(1-Cyclopropylmethyl-piperidine-4-carbonyl)-4-(3,4-dichloro-phenyl)-pyrrolidin-3-yl]-methyl-carbamic acid 4-methoxy-phenyl ester]",13.6
2,"CN(C(=O)Oc1ccc(F)cc1)[C@@H]1CN(C(=O)C2CCS(=O)(=O)CC2)C[C@H]1c1ccc(Cl)cc1 [Example 93, [(3S,4R)-4-(4-Chloro-phenyl)-1-(1,1-dioxo-hexahydro-1λ^6-thiopyran-4-carbonyl)-pyrrolidin-3-yl]-methyl-carbamic acid 4-fluoro-phenyl ester]",6.6
3,"CN(C(=O)Oc1ccc(F)cc1)[C@@H]1CN(C(=O)C2CCN(c3ccc(C#N)cn3)CC2)C[C@H]1c1ccc(Cl)cc1 [Example 94, [(3S,4R)-4-(4-Chloro-phenyl)-1-(5′-cyano-3,4,5,6-tetrahydro-2H-[1,2′]bipyridinyl-4-carbonyl)-pyrrolidin-3-yl]-methyl-carbamic acid 4-fluoro-phenyl ester]",0.2
4,"CN(C(=O)OC(c1ccc(F)cc1)C1CC1)[C@@H]1CN(C(=O)C2CCN(c3ccc(C#N)cn3)CC2)C[C@H]1c1ccc(Cl)cc1 (stereo partly drawn) [Example 239, [(3S,4R)-4-(4-Chloro-phenyl)-1-(5′-cyano-3,4,5,6-tetrahydro-2H-[1,2′]bipyridinyl-4-carbonyl)-pyrrolidin-3-yl]-methyl-carbamic acid cyclopropyl-(4-fluoro-phenyl)-methyl ester]",61.6
5,"CN(C(=O)O[C@H]1CC[C@@H](C)CC1)[C@@H]1CN(C(=O)C2CCN(c3ccc(C#N)cn3)CC2)C[C@H]1c1ccc(Cl)cc1 [Example 220, [(3S,4R)-4-(4-Chloro-phenyl)-1-(5′-cyano-3,4,5,6-tetrahydro-2H-[1,2′]bipyridinyl-4-carbonyl)-pyrrolidin-3-yl]-methyl-carbamic acid 4-methyl-cyclohexyl ester]",42.8
6,"CN(C(=O)Oc1ccc(Cl)cc1)[C@H]1CN(C(=O)C2CCN(C(=O)C3(C)CC3)CC2)C[C@@H]1c1ccc(Cl)c(Cl)c1 (racemic) [Example 12, rac-{(3R,4S)-4-(3,4-Dichloro-phenyl)-1-[1-(1-methyl-cyclopropanecarbonyl)-piperidine-4-carbonyl]-pyrrolidin-3-yl}-methyl-carbamic acid 4-chloro-phenyl ester]",0.6
7,"CN(C(=O)Oc1ccc(F)cc1)[C@@H]1CN(C(=O)C2CCN(C(=O)C3CC(F)C3)CC2)C[C@H]1c1ccc(F)cc1 (stereo partly drawn) [Example 287, [(3S,4R)-1-[1-(3-Fluoro-cyclobutanecarbonyl)-piperidine-4-carbonyl]-4-(4-fluoro-phenyl)-pyrrolidin-3-yl]-methyl-carbamic acid 4-fluoro-phenyl ester]",7.2
8,"CN(C(=O)O[C@H]1C[C@H]2CC[C@@H]1C2)[C@H]1CN(C(=O)C2CCN(C(=O)C3(C)CC3)CC2)C[C@@H]1c1ccc(Cl)c(Cl)c1 (mixture of isomers) [Example 68, {(3R,4S)-4-(3,4-Dichloro-phenyl)-1-[1-(1-methyl-cyclopropanecarbonyl)-piperidine-4-carbonyl]-pyrrolidin-3-yl}-methyl-carbamic acid (1R,2S,4S)-bicyclo[2.2.1]hept-2-yl ester and {(3S,4R)-4-(3,4-Dichloro-phenyl)-1-[1-(1-methyl-cyclopropanecarbonyl)-piperidine-4-carbonyl]-pyrrolidin-3-yl}-methyl-carbamic acid (1R,2S,4S)-bicyclo[2.2.1]hept-2-yl ester]",62.6
9,"CC(=O)N1CCC(C(=O)N2C[C@@H](N(C)C(=O)Oc3ccc(F)cc3)[C@H](c3ccc(F)cc3)C2)CC1 [Example 285, [(3S,4R)-1-(1-Acetyl-piperidine-4-carbonyl)-4-(4-fluoro-phenyl)-pyrrolidin-3-yl]-methyl-carbamic acid 4-fluoro-phenyl ester]",19.1
10,"CN(C(=O)Oc1ccc(F)cc1)[C@@H]1CN(C(=O)C2CCN(C(=O)C3(C)COC3)CC2)C[C@H]1c1ccc(Cl)c(Cl)c1 [Example 266, {(3S,4R)-4-(3,4-Dichloro-phenyl)-1-[1-(3-methyl-oxetane-3-carbonyl)-piperidine-4-carbonyl]-pyrrolidin-3-yl}-methyl-carbamic acid 4-fluoro-phenyl ester]",0.5
11,"CN(C(=O)Oc1ccc(F)cc1)[C@@H]1CN(C(=O)C2CCN(C(=O)c3ccc(F)cn3)CC2)C[C@H]1c1ccc(Cl)c(Cl)c1 [Example 280, {(3S,4R)-4-(3,4-Dichloro-phenyl)-1-[1-(5-fluoro-pyridine-2-carbonyl)-piperidine-4-carbonyl]-pyrrolidin-3-yl}-methyl-carbamic acid 4-fluoro-phenyl ester]",0.8
12,"CCC(C)(C)OC(=O)N(C)[C@@H]1CN(C(=O)C2CCN(c3ccc(C#N)cn3)CC2)C[C@H]1c1ccc(Cl)cc1 [Example 234, [(3S,4R)-4-(4-Chloro-phenyl)-1-(5′-cyano-3,4,5,6-tetrahydro-2H-[1,2′]bipyridinyl-4-carbonyl)-pyrrolidin-3-yl]-methyl-carbamic acid 1,1-dimethyl-propyl ester]",79.4
13,"CC(C)N1CC(C(=O)N2CCC(C(=O)N3C[C@@H](N(C)C(=O)Oc4ccc(F)cc4)[C@H](c4ccc(Cl)cc4)C3)CC2)CCC1=O (stereo partly drawn) [Example 264, {(3S,4R)-4-(4-Chloro-phenyl)-1-[1-(1-isopropyl-6-oxo-piperidine-3-carbonyl)-piperidine-4-carbonyl]-pyrrolidin-3-yl}-methyl-carbamic acid 4-fluoro-phenyl ester]",8.8
14,"CN(C(=O)Oc1ccc(F)cc1)[C@@H]1CN(C(=O)C2CCN(C(=O)C3CCOCC3)CC2)C[C@H]1c1ccc(Cl)cc1 [Example 257, {(3S,4R)-4-(4-Chloro-phenyl)-1-[1-(tetrahydro-pyran-4-carbonyl)-piperidine-4-carbonyl]-pyrrolidin-3-yl}-methyl-carbamic acid 4-fluoro-phenyl ester]",2.2
15,"CN(C(=O)Oc1ccc(F)cc1)[C@@H]1CN(C(=O)C2CCN(c3ncccn3)CC2)C[C@H]1c1ccc(Cl)cc1 [Example 183, [(3S,4R)-4-(4-Chloro-phenyl)-1-(1-pyrimidin-2-yl-piperidine-4-carbonyl)-pyrrolidin-3-yl]-methyl-carbamic acid 4-fluoro-phenyl ester]",16
16,"CN(C(=O)Oc1ccc(F)cc1)[C@H]1CN(C(=O)[C@H]2CC[C@H](O)CC2)C[C@@H]1c1ccc(Cl)c(Cl)c1 (stereo in doubt) [Example 45, [(3R,4S)-4-(3,4-Dichloro-phenyl)-1-(trans-4-hydroxy-cyclohexanecarbonyl)-pyrrolidin-3-yl]-methyl-carbamic acid 4-fluoro-phenyl ester]",3.2
17,"CN(C(=O)Oc1ccc(F)cc1)[C@@H]1CN(C(=O)C2CCN(c3ccc(Cl)nn3)CC2)C[C@H]1c1ccc(Cl)cc1 [Example 110, {(3S,4R)-4-(4-Chloro-phenyl)-1-[1-(6-chloro-pyridazin-3-yl)-piperidine-4-carbonyl]-pyrrolidin-3-yl}-methyl-carbamic acid 4-fluoro-phenyl ester]",0.3
18,"CN(C(=O)Oc1ccc(F)cc1)[C@@H]1CN(C(=O)C2CCN(C3CCS(=O)(=O)C3)CC2)C[C@H]1c1ccc(Cl)cc1 (stereo partly drawn) [Example 115, {(3S,4R)-4-(4-Chloro-phenyl)-1-[1-(1,1-dioxo-tetrahydro-1λ^6-thiophen-3-yl)-piperidine-4-carbonyl]-pyrrolidin-3-yl}-methyl-carbamic acid 4-fluoro-phenyl ester]",1.3
19,"CN(C(=O)Oc1ccc(F)cc1)[C@@H]1CN(C(=O)C2CCN(c3cnc(C#N)cn3)CC2)C[C@H]1c1ccc(Cl)cc1 [Example 193, {(3S,4R)-4-(4-Chloro-phenyl)-1-[1-(5-cyano-pyrazin-2-yl)-piperidine-4-carbonyl]-pyrrolidin-3-yl}-methyl-carbamic acid 4-fluoro-phenyl ester]",1.1
20,"CC(CC(F)(F)F)OC(=O)N(C)[C@@H]1CN(C(=O)C2CCN(c3ccc(C#N)cn3)CC2)C[C@H]1c1ccc(Cl)cc1 (stereo partly drawn) [Example 177, [(3S,4R)-4-(4-Chloro-phenyl)-1-(5′-cyano-3,4,5,6-tetrahydro-2H-[1,2′]bipyridinyl-4-carbonyl)-pyrrolidin-3-yl]-methyl-carbamic acid 3,3,3-trifluoro-1-methyl-propyl ester]",18.9
21,"CN(C(=O)Oc1ccc(F)cc1)[C@@H]1CN(C(=O)C2CCN(C(=O)C3(C)CC3)CC2)C[C@H]1c1ccc(F)cc1 [Example 129, {(3S,4R)-4-(4-Fluoro-phenyl)-1-[1-(1-methyl-cyclopropanecarbonyl)-piperidine-4-carbonyl]-pyrrolidin-3-yl}-methyl-carbamic acid 4-fluoro-phenyl ester]",13.7

# Same assay, conditions: hNK-3 receptor affinity; membranes from HEK293 cells transiently expressing recombinant human NK3 receptor; [3H]SR142801; Cheng-Prussoff; read-out: Data Ki
row,Structure (SMILES),Ki [nM]
1,"CN(C(=O)OCCC(F)(F)F)[C@H]1CN(C(=O)C2CCN(c3ccc(C#N)cn3)CC2)C[C@@H]1c1ccc(Cl)cc1 [Example 145, [(3R,4S)-4-(4-Chloro-phenyl)-1-(5′-cyano-3,4,5,6-tetrahydro-2H-[1,2′]bipyridinyl-4-carbonyl)-pyrrolidin-3-yl]-methyl-carbamic acid 3,3,3-trifluoro-propyl ester]",56.9
2,"CN(C(=O)OCC1(C)CC1)[C@H]1CN(C(=O)C2CCN(C(=O)C3(C)CC3)CC2)C[C@@H]1c1ccc(Cl)c(Cl)c1 [Example 106, {(3R,4S)-4-(3,4-Dichloro-phenyl)-1-[1-(1-methyl-cyclopropanecarbonyl)-piperidine-4-carbonyl]-pyrrolidin-3-yl}-methyl-carbamic acid 1-methyl-cyclopropylmethyl ester]",1
